Data reported in a compilation of properties of binary mixtures (doi:10.1021/je300132e).

Assay: xn = mol fraction of the nth substance listed
Conditions: 101 kPa

CC(=O)[O-].CC[n+]1ccn(C)c1 + O
viscosity (293.1 K, x2 = 0.347): 93.7 mPa·s
viscosity (293.1 K, x2 = 0.627): 42.8 mPa·s
viscosity (313.1 K, x2 = 0.347): 35.2 mPa·s
viscosity (313.1 K, x2 = 0.517): 24.4 mPa·s
viscosity (313.1 K, x2 = 0.578): 21.4 mPa·s
viscosity (313.1 K, x2 = 0.627): 18.2 mPa·s
viscosity (313.1 K, x2 = 0.705): 14 mPa·s
viscosity (333.1 K, x2 = 0.347): 16.9 mPa·s
viscosity (333.1 K, x2 = 0.627): 9.39 mPa·s
viscosity (333.1 K, x2 = 0.705): 7.36 mPa·s
viscosity (353.1 K, x2 = 0.347): 9.51 mPa·s
viscosity (353.1 K, x2 = 0.517): 7.19 mPa·s
viscosity (353.1 K, x2 = 0.578): 6.46 mPa·s
viscosity (353.1 K, x2 = 0.627): 5.63 mPa·s
viscosity (353.1 K, x2 = 0.705): 4.38 mPa·s

CC[NH+](C)CC.CS(=O)(=O)[O-] + O
viscosity (293.1 K, x2 = 0.372): 65.26 mPa·s
viscosity (293.1 K, x2 = 0.449): 49.94 mPa·s
viscosity (293.1 K, x2 = 0.507): 41.92 mPa·s
viscosity (293.1 K, x2 = 0.624): 27.93 mPa·s
viscosity (313.1 K, x2 = 0.449): 21.55 mPa·s
viscosity (313.1 K, x2 = 0.507): 18.69 mPa·s
viscosity (313.1 K, x2 = 0.624): 13.36 mPa·s
viscosity (313.1 K, x2 = 0.707): 10.09 mPa·s
viscosity (333.1 K, x2 = 0.449): 11.37 mPa·s
viscosity (333.1 K, x2 = 0.624): 7.34 mPa·s
viscosity (333.1 K, x2 = 0.707): 5.72 mPa·s
viscosity (353.1 K, x2 = 0.372): 8.2 mPa·s
viscosity (353.1 K, x2 = 0.507): 6.08 mPa·s
viscosity (353.1 K, x2 = 0.707): 3.6 mPa·s
